Laboratory results taken from ChEMBL document CHEMBL4840357, “Functionalized Dioxonaphthoimidazoliums: A Redox Cycling Chemotype with Potent Bactericidal Activities against Mycobacterium tuberculosis” (J Med Chem, 2021).
Values after ≈ are worked out from the molar mass of the structure shown. Active and inactive are the calls of the source. The rule behind the calls is not given here.

What was measured:
[1] = tested on: Mycobacterium tuberculosis variant bovis BCG; assay: Antimycobacterial activity against Mycobacterium bovis BCG ATCC 35734 incubated for 5 days by broth dilution method; type: functional; conditions: ATCC 35734, 120 h, time 5 day
[2] = tested on: Mycobacterium tuberculosis variant bovis BCG; assay: Ratio of MIC for antimycobacterial activity against Mycobacterium bovis BCG ATCC 35734 in absence of glycerol to MIC for antimycobacterial activity against Mycobacterium bovis BCG ATCC 35734 in presence of glycerol; type: functional
[3] = tested on: Mycobacterium tuberculosis variant bovis BCG; assay: Bactericidal activity against Mycobacterium bovis BCG ATCC 35734 incubated for 5 days by broth dilution method; type: functional; conditions: ATCC 35734, 120 h, time 5 day, read-out: MBC99.9
[4] = tested on: Mycobacterium tuberculosis variant bovis BCG; assay: Induction of oxidative stress Mycobacterium bovis BCG-pfurA-RFP ATCC 35734 assessed as activation of pfurA at 0.5 to 2 times MIC90 after 24 hrs by fluorescence assay; type: functional, organism-based
[5] = tested on: Mycobacterium tuberculosis variant bovis BCG; assay: Induction of ROS generation in Mycobacterium bovis BCG ATCC 35734 at <= 1 times of MIC90 after 90 mins by cellrox-green reagent based assay; type: functional, organism-based
[6] = tested on: Mycobacterium tuberculosis variant bovis BCG; assay: Induction of ROS generation in Mycobacterium bovis BCG ATCC 35734 at 2 times of MIC90 after 90 mins by cellrox-green reagent based assay; type: functional, organism-based
Cell membrane = assay: Induction of cell envelope stress in Mycobacterium bovis BCG ATCC 35734 expressing piniBAC RFP at 100 times MIC90 after 24 hrs by fluorescence analysis; type: functional, subcellular; conditions: Mycobacterium tuberculosis variant bovis BCG
[7] = tested on: Mycobacterium tuberculosis variant bovis BCG; assay: Antimycobacterial activity against Mycobacterium bovis BCG ATCC 35734 carrying katG loss-of-function mutant assessed fold reduction in MIC at 1 to 2 times of MIC90 incubated for 5 days under liquid medium; type: functional, organism-based; conditions: time 5.0 day
[8] = tested on: Mycobacterium tuberculosis variant bovis BCG; assay: Induction of ROS generation in Mycobacterium bovis BCG ATCC 35734 at 2 times of MIC90 measured upto 24 hrs by cellrox-green reagent based assay; type: functional, organism-based; conditions: time hrs <=24
[9] = tested on: Mycobacterium tuberculosis variant bovis BCG; assay: Induction of oxidative stress Mycobacterium bovis BCG-pfurA-RFP ATCC 35734 assessed as activation of pfurA after 24 hrs by fluorescence assay; type: functional, organism-based
[10] = tested on: Mycobacterium tuberculosis variant bovis BCG; assay: Induction of ROS generation in Mycobacterium bovis BCG ATCC 35734 after 90 mins by cellrox-green reagent based assay; type: functional, organism-based
[11] = tested on: Mycobacterium tuberculosis variant bovis BCG; assay: Antimycobacterial activity against Mycobacterium bovis BCG ATCC 35734 carrying katG loss-of-function mutant assessed fold reduction in MIC at 1 to 2 times of MIC90 incubated for 5 days under solid agar medium; type: functional, organism-based; conditions: time 5.0 day

Row | Compound | MIC90 [1] [µM] | other results
1 | CCCn1c(C)nc2c1C(=O)c1ccccc1C2=O | > 50 | –
2 | CCC(C)[n+]1c2c(n(C(C)C)c1C)C(=O)c1ccccc1C2=O (stereo not given) | 11 | –
3 | CCCn1c2c([n+](C(C)C)c1C)C(=O)c1ccccc1C2=O | 21 | –
4 | CCCCCCCCn1c2c([n+](CCCCCCCC)c1C)C(=O)c1cccnc1C2=O | 10 | –
5 | CCCCCCCCn1c2c([n+](CCCCCC)c1C)C(=O)c1ccccc1C2=O | 0.34 | –
6 | CCCCn1c2c([n+](CCCN3CCOCC3)c1C)C(=O)c1ccccc1C2=O | 13 | –
7 | CCCCCn1c(C)nc2c1C(=O)c1ccccc1C2=O | 39 (≈ 11 µg/mL) | –
8 | CCCCCCCCCC[n+]1c2c(n(CC(C)C)c1C)C(=O)c1ccccc1C2=O | 0.36 | –
9 | CCCCCCCCCCCCn1c2c([n+](CCCCCCCCCCCC)c1C)C(=O)c1ccccc1C2=O | 4.8 | –
10 | CCCCCCn1c2c([n+](CCCCCC)c1C)C(=O)c1ccccc1C2=O | 0.22 | Ratio [2]: < 2; MBC [3]: 0.64 µM; MIC50 [1]: 0.11 µM
11 | CCCCn1c2c([n+](C3CC3)c1C)C(=O)c1ccccc1C2=O | 6.9 | –
12 | CCCCCCCCn1c2c([n+](C3CCC4(CCCCC4)CC3)c1C)C(=O)c1ccccc1C2=O | 0.2 | MBC [3]: 0.2 µM; MIC50 [1]: 0.11 µM
13 | CCCCCCCCn1c2c([n+](CCCCC)c1C)C(=O)c1ccccc1C2=O | 0.33 | –
14 | CCCCCCn1c2c([n+](C3CCC4(CCCCC4)CC3)c1C)C(=O)c1ccccc1C2=O | 0.15 | MBC [3]: 0.2 µM
15 | CCCn1c2c([n+](CCC)c1C)C(=O)c1ccccc1C2=O | 25 | –
16 | CC(C)/N=c1\cc2n(-c3ccc(Cl)cc3)c3ccccc3nc-2cc1Nc1ccc(Cl)cc1 [CLOFAZIMINE] | 0.4 (≈ 0.189 µg/mL) | MIC50 [1]: 0.2 µM (≈ 0.0947 µg/mL)
17 | CCCCCCCCCCn1c2c([n+](CCCCCCCCCC)c1C)C(=O)c1ccccc1C2=O | 3.1 | –
18 | Cc1n(C(C)C)c2c([n+]1C1CC1)C(=O)c1ccccc1C2=O | 35 | –
19 | CCn1c(C)nc2c1C(=O)c1ccccc1C2=O | > 50 | –
20 | CCC(C)[n+]1c2c(n(C3CC3)c1C)C(=O)c1ccccc1C2=O (stereo not given) | 13 | –
21 | CCn1c2c([n+](CC)c1C)C(=O)c1ccccc1C2=O | 17 | –

Row | Compound | MIC90 [1] [µM] | other results
22 | CCCCCCCCCCCC[n+]1c2c(n(CC(C)C)c1C)C(=O)c1ccccc1C2=O | 0.54 | –
23 | CCCCCCn1c2c([n+](C(C)CC)c1C)C(=O)c1ccccc1C2=O (stereo not given) | 0.66 | –
24 | CCCCn1c2c([n+](CCCC)c1C)C(=O)c1ccccc1C2=O | 1.9 | –
25 | Cc1n(CC(C)C)c2c([n+]1C(C)C)C(=O)c1ccccc1C2=O | 5.6 | –
26 | CCC[n+]1c2c(n(C)c1C)C(=O)c1ccccc1C2=O | 18 | –
27 | Cc1nc2c(n1C(C)C)C(=O)c1ccccc1C2=O | > 50 | –
28 | CC[n+]1c2c(n(CC(C)C)c1C)C(=O)c1ccccc1C2=O | 4.9 | –
29 | Cc1n(CC(C)C)c2c([n+]1CC(C)C)C(=O)c1ccccc1C2=O | 1.9 | –
30 | CCCCn1c(C)nc2ccccc21 | > 50 | –
31 | CCCCCCCCCCn1c(C)nc2c1C(=O)c1ccccc1C2=O | 47 (≈ 16.6 µg/mL) | –
32 | CC[n+]1c2c(n(C(C)C)c1C)C(=O)c1ccccc1C2=O | 15 | –
33 | CCCCCCCCn1c(C)[n+](CCCC)c2ccccc21 | > 50 | –
34 | Cc1n(CC(C)C)c2c([n+]1C)C(=O)c1ccccc1C2=O | 6.3 | –
35 | CCCC[n+]1c2c(n(CC(C)C)c1C)C(=O)c1ccccc1C2=O | 1.5 | –
36 | CCCC[n+]1c2c(n(CCC)c1C)C(=O)c1ccccc1C2=O | 2.3 | –
37 | CCCCCCCCCn1c2c([n+](CCCCCCCCC)c1C)C(=O)c1ccncc1C2=O | 2.6 | –
38 | CCCCCCn1c2c([n+](CCCCCC)c1C)C(=O)c1ccncc1C2=O | 5.4 | –
39 | Cc1n(CC(C)C)c2c([n+]1C1CC1)C(=O)c1ccccc1C2=O | 6 | –
40 | CCCCn1c2c([n+](CC)c1C)C(=O)c1ccccc1C2=O | 7.7 | –
41 | CCCCn1c2c([n+](C3CCCCC3)c1C)C(=O)c1ccccc1C2=O | 1.4 | –
42 | CCCCCCCC[n+]1c2c(n(CC(C)C)c1C)C(=O)c1ccccc1C2=O | 0.26 | Ratio [2]: < 2; MIC50 [1]: 0.14 µM

Row | Compound | MIC90 [1] [µM] | other results
43 | CCCCn1c(C)nc2c1C(=O)c1ccccc1C2=O | > 50 | –
44 | Cc1n(C(C)C)c2c([n+]1C(C)C)C(=O)c1ccccc1C2=O | 25 | –
45 | CCCCCCCCn1c2c([n+](CCCCCCCC)c1C)C(=O)c1ccncc1C2=O | 1.1 | –
46 | CCCCCCn1c2c([n+](CCCCCC)c1C)C(=O)c1cccnc1C2=O | 2.3 | –
47 | CCCCCCCC[n+]1c2c(n(CCCC)c1CC)C(=O)c1ccccc1C2=O | 0.49 | –
48 | CCCn1c2c([n+](CC)c1C)C(=O)c1ccccc1C2=O | 8.3 | –
49 | CCCC[n+]1c2c(n(C)c1C)C(=O)c1ccccc1C2=O | 6.7 | –
50 | CCCCCCCCn1c(C)nc2c1C(=O)c1ccccc1C2=O | 11 (≈ 3.57 µg/mL) | Activity [4]: inactive; Activity [5]: inactive; Activity [6]: Active
51 | CC[n+]1c2c(n(C)c1C)C(=O)c1ccccc1C2=O | 22 | –
52 | CCCCCCCCn1c2c([n+](CCCC)c1C)C(=O)c1cccnc1C2=O | 3.3 | –
53 | CCCCn1c2c([n+](Cc3ccccc3)c1C)C(=O)c1ccccc1C2=O | 0.43 | –
54 | Cc1n(C)c2c([n+]1C)C(=O)c1ccccc1C2=O | 40 | –
55 | CCCCCC[n+]1c2c(n(CCCC)c1C)C(=O)c1ccccc1C2=O | 0.43 | –
56 | Cc1n(C2CC2)c2c([n+]1C1CC1)C(=O)c1ccccc1C2=O | 37 | –
57 | CCCCn1c2c([n+](C3CCC4(CCCCC4)CC3)c1C)C(=O)c1ccccc1C2=O.[Br-] | 0.3 | Ratio [2]: < 2; Activity (Cell membrane): inactive; Activity [7]: inactive; Activity [8]: Active; Activity [9]: Dose-Dependent Effect; Activity [10]: Dose-Dependent Effect; MBC [3]: 1.3 µM; MIC50 [1]: 0.13 µM; Activity [11]: Active
58 | CCCC[n+]1c2c(n(C(C)C)c1C)C(=O)c1ccccc1C2=O | 3.1 | –
59 | CCCCn1c2c([n+](CC3CCCCC3)c1C)C(=O)c1ccccc1C2=O | 0.35 | –
60 | CCCCCCCCn1c2c([n+](C(C)CC)c1C)C(=O)c1ccccc1C2=O (stereo not given) | 0.46 | –
61 | CCCn1c2c([n+](C3CC3)c1C)C(=O)c1ccccc1C2=O | 17 | –
62 | CCCCCCCCn1c(C)nc2ccccc21 | 23 (≈ 5.62 µg/mL) | –
63 | CCn1c2c([n+](C3CC3)c1C)C(=O)c1ccccc1C2=O | 15 | –

Row | Compound | MIC90 [1] [µM] | other results
64 | CCCCCCCCn1c2c([n+](CCCCCCCC)c1C)C(=O)c1ccccc1C2=O | 0.88 | –
65 | CCC[n+]1c2c(n(CC(C)C)c1C)C(=O)c1ccccc1C2=O | 3 | –
66 | NNC(=O)c1ccncc1 [ISONIAZID] | – | MIC50 [1]: 1.6 µM (≈ 0.219 µg/mL)
67 | CCCCCCCCCCn1c2c([n+](C(C)CC)c1C)C(=O)c1ccccc1C2=O (stereo not given) | 0.52 | –
68 | CCCCCC[n+]1c2c(n(CC(C)C)c1C)C(=O)c1ccccc1C2=O | 0.3 | Ratio [2]: < 2; MIC50 [1]: 0.18 µM
69 | CCC(C)[n+]1c2c(n(CC)c1C)C(=O)c1ccccc1C2=O (stereo not given) | 11 | –
70 | CCCCCCCCCCn1c(C)nc2ccccc21 | 15 (≈ 4.09 µg/mL) | –
71 | CCC(C)[n+]1c2c(n(C)c1C)C(=O)c1ccccc1C2=O (stereo not given) | 13 | –
72 | Cc1n(C)c2c([n+]1C(C)C)C(=O)c1ccccc1C2=O | 6.2 | –
73 | CCCCn1c2c([n+](C3CCCCCCC3)c1C)C(=O)c1ccccc1C2=O | 0.6 | –
74 | CCCCCCn1c(C)nc2c1C(=O)c1ccccc1C2=O | 15 (≈ 4.45 µg/mL) | Activity [4]: inactive; Activity [5]: inactive; Activity [6]: Active
75 | Cc1n(C)c2c([n+]1C1CC1)C(=O)c1ccccc1C2=O | 34 | –
76 | Cc1nc2c(n1C)C(=O)c1ccccc1C2=O | > 50 | –
77 | CCCCn1c2c([n+](CCC3CCCCC3)c1C)C(=O)c1ccccc1C2=O | 0.37 | –
78 | CCCn1c2c([n+](C(C)CC)c1C)C(=O)c1ccccc1C2=O (stereo not given) | 5.5 | –
79 | CCC(C)[n+]1c2c(n(CC(C)C)c1C)C(=O)c1ccccc1C2=O (stereo not given) | 3.6 | –
80 | CCCCCCn1c2c([n+](CCCCCC)c1CC)C(=O)c1ccccc1C2=O | 0.52 | –
81 | CCCCn1c2c([n+](CCCC)c1C)C(=O)c1cccnc1C2=O | 12 | –
82 | CCCCCCCCCCCCn1c(C)nc2ccccc21 | 10 (≈ 3 µg/mL) | –
83 | CCCCn1c2c([n+](C(C)CC)c1C)C(=O)c1ccccc1C2=O (stereo not given) | 3.1 | –
84 | CCCCn1c2c([n+](CCCC)c1C)C(=O)c1ccncc1C2=O | 21 | –
